The record followed here is patent US11878955B1, “3,3′,3″-nitrilotris(1-(naphthalen-2-yloxy)propan-2-ol) as an eco-friendly insecticidal agent against Spodoptera littoralis (boisd.)” (priority 2023, dated 2024).

In brackets after ≈: the same amount, converted by molar mass.

This series concerns Spodoptera littoralis larvae (2nd and 4th instars). Briefly: Insecticidal bioassay screening (castor leaf dip). The series is classed as in vivo. Particulars: for LC50 (ppm): after 72 h of treatment; for Toxic ratio: 72 h, fenoxycarb's LC50 / the compound's LC50 × 100. On the procedure:
Five concentrations (200, 100, 50, 25, 12.5 ppm) were designed for this synthetic compound and the reference fenoxycarb compound as the dynamic ingredients based on ppm via diluting the commercial formulation.
In this experiment, castor leaves are immersed in each of the previously prepared concentrations of the components for 10 seconds and then left to dry for 60 minutes. Larvae of the second and fourth instars of each checked strain are prepared with treated leaves in gauze-covered glass containers for 72 hrs. An untreated control is made in which leaves are dipped in triton x-100 and distilled water only. Then the preserved leaves were removed & fresh, untreated leaves were provided for 72 hours. Three replicates (10 larvae each) were checked for each concentration. Daily inspection was carried out for all treatments and mortality percentages were recorded 3 days (72 hours) after treatment. The average mortality percentage was corrected employing Abbott's formula. The corrected mortality rate for each of the previously synthesized compounds is statistically calculated according to Finney (1970). Through this rate, the corresponding concentration test lines (LDP lines) are assessed. Fifty and ninety percent mortality are determined, and the regression values for the checked products were previously evaluated.

As usually defined, the LC50 is the concentration lethal to half of the exposed cells or organisms. Regarding `CCOC(=O)NCCOc1ccc(Oc2ccccc2)cc1` [Fenoxycarb, reference compound], the “LC50 (ppm)” value reads like this: (2nd instar larvae of S. littoralis) 2.73 ppm; (4th instar larvae of S. littoralis) 43.231 ppm. Moreover, the Toxic ratio (2nd instar larvae) was found to be 100 and the Toxic ratio (4th instar larvae) turned out to be 100. The same compound had a 50% lethal concentration (LC50) (Spodoptera littoralis, foliar) of 2.73 µg/mL (≈ 9.06 µM).
